Series [1] has as its system Schoenoplectiella juncoides. The experiment in a line: Pre-emergence herbicide activity against Schoenoplectiella juncoides under greenhouse condition at 1 g a.i/a measured after 3 weeks. It counts as functional.
For series [2], the system named is Schoenoplectiella juncoides. The experiment in a line: Pre-emergence herbicide activity against Schoenoplectiella juncoides under greenhouse condition at 10 g a.i/a measured after 3 weeks. It counts as functional.
The test system of series [3] is Echinochloa oryzicola. The series can be described thus: Pre-emergence herbicide activity against Echinochloa oryzicola under greenhouse condition at 1 g a.i/a measured after 3 weeks. It counts as functional.
For series [4], the system named is Echinochloa oryzicola. The series can be described thus: Post-emergence herbicide activity against Echinochloa oryzicola under greenhouse condition at 1 g a.i/a treated at one-leaf stage measured after 3 weeks. It counts as functional.
Series [5] concerns Echinochloa oryzicola. The experiment in a line: Post-emergence herbicide activity against Echinochloa oryzicola under greenhouse condition at 10 g a.i/a treated at one-leaf stage measured after 3 weeks. Format: functional.
In series [6] the test system is Echinochloa oryzicola. The series can be described thus: Pre-emergence herbicide activity against Echinochloa oryzicola under greenhouse condition at 10 g a.i/a measured after 3 weeks. Format: functional.
The test system of series [7] is Schoenoplectiella juncoides. The experiment in a line: Post-emergence herbicide activity against Schoenoplectiella juncoides under greenhouse condition at 1 g a.i/a treated at one-leaf stage measured after 3 weeks. It counts as functional.
In series [8] the test system is Schoenoplectiella juncoides. The experiment in a line: Post-emergence herbicide activity against Schoenoplectiella juncoides under greenhouse condition at 10 g a.i/a treated at one-leaf stage measured after 3 weeks. Format: functional.
Series [9] deals with Oryza sativa. The series can be described thus: Phytotoxicity against two-leaf stage Oryza sativa cv. Nipponbare (rice) planted zero cm depth at 5.0 g a.i/a measured after 3 weeks. Format: organism-based. Particulars: in vivo, 504 h.
The test system of series [10] is Oryza sativa. The experiment in a line: Phytotoxicity against two-leaf stage Oryza sativa cv. Nipponbare (rice) planted 2 cm depth at 1 g a.i/a measured after 3 weeks. It counts as organism-based. Particulars: in vivo, other, 504 h.
Series [11] has as its system Oryza sativa. The series can be described thus: Phytotoxicity against two-leaf stage Oryza sativa cv. Nipponbare (rice) planted 2 cm depth at 2.5 g a.i/a measured after 3 weeks. To be noted: in vivo, 504 h. Format: organism-based.
The test system of series [12] is Oryza sativa. The series can be described thus: Phytotoxicity against two-leaf stage Oryza sativa cv. Nipponbare (rice) planted 2 cm depth at 5.0 g a.i/a measured after 3 weeks. It counts as organism-based. Particulars: in vivo, 504 h.
In series [13] the test system is Echinochloa oryzicola. The experiment in a line: Herbicidal activity against Echinochloa oryzicola at 1 g a.i/a treated at 2.5 leaf stage measured after 3 weeks. It counts as functional.
Series [14] deals with Echinochloa oryzicola. The experiment in a line: Herbicidal activity against Echinochloa oryzicola at 2.5 g a.i/a treated at 2.5 leaf stage measured after 3 weeks. Format: functional.
For series [15], the system named is Echinochloa oryzicola. The series can be described thus: Herbicidal activity against Echinochloa oryzicola at 5.0 g a.i/a treated at 2.5 leaf stage measured after 3 weeks. It counts as functional.
The subject of series [16] is Echinochloa oryzicola. The series can be described thus: Herbicidal activity against Echinochloa oryzicola at 1 g a.i/a treated at 1.5 leaf stage measured after 3 weeks. It counts as functional.
Series [17] concerns Echinochloa oryzicola. The series can be described thus: Herbicidal activity against Echinochloa oryzicola at 2.5 g a.i/a treated at 1.5 leaf stage measured after 3 weeks. It counts as functional.
Series [18] has as its system Echinochloa oryzicola. The experiment in a line: Herbicidal activity against Echinochloa oryzicola at 5.0 g a.i/a treated at 1.5 leaf stage measured after 3 weeks. It counts as functional.
Series [19] can be described thus: Drug degradation in MeOH-water/KOH at 70 degC assessed as formation of 1-[1-(3,5-dichlorophenyl)-1-methylethyl]-4-methyl-3- phenyl-3-pyrrolin-2-one. Format: physicochemical. To be noted: buffer.
For series [20], the system named is Oryza sativa. The experiment in a line: Phytotoxicity against two-leaf stage Oryza sativa cv. Nipponbare (rice) planted zero cm depth at 2.5 g a.i/a measured after 3 weeks. Format: organism-based. Particulars: in vivo, other, 504 h.
The test system of series [21] is Oryza sativa. The series can be described thus: Phytotoxicity against two-leaf stage Oryza sativa cv. Nipponbare (rice) planted 2 cm depth assessed as crop injury at 3 g a.i/a followed by leaching of irrigation water for 3 days measured after 3 weeks post-treatment. Particulars: in vivo, other, 504 h. Format: organism-based.
The test system of series [22] is Oryza sativa. The series can be described thus: Phytotoxicity against two-leaf stage Oryza sativa cv. Nipponbare (rice) planted 2 cm depth assessed as crop injury at 6 g a.i/a followed by leaching of irrigation water for 3 days measured after 3 weeks post-treatment. To be noted: in vivo, other, 504 h. Format: organism-based.
In series [23] the test system is Oryza sativa. The series can be described thus: Phytotoxicity against two-leaf stage Oryza sativa cv. Nipponbare (rice) planted zero cm depth at 1 g a.i/a measured after 3 weeks. It counts as organism-based. To be noted: in vivo, other, 504 h.
The subject of series [24] is Oryza sativa. The series can be described thus: Phytotoxicity against two-leaf stage Oryza sativa cv. Nipponbare (rice) planted 2 cm depth assessed as crop injury at 2 g a.i/a followed by leaching of irrigation water for 3 days measured after 3 weeks post-treatment. It counts as organism-based. To be noted: in vivo, other, 504 h.
The subject of series [25] is Oryza sativa. The series can be described thus: Phytotoxicity against two-leaf stage Oryza sativa cv. Nipponbare (rice) planted 2 cm depth assessed as crop injury at 4 g a.i/a followed by leaching of irrigation water for 3 days measured after 3 weeks post-treatment. To be noted: in vivo, other, 504 h. Format: organism-based.

This is an account of results in ChEMBL document CHEMBL3044903, “Synthesis and Herbicidal Activity of Novel 3-Alkoxycarbonyl-3-aryl-2,3-dihydro-2-oxo-1H-pyrrole Derivatives” (J Pestic Sci, 2004).

For the compound `COC(=O)C1(c2ccccc2)C(=O)N(C(C)(C)c2cc(Cl)cc(Cl)c2)C=C1C` (stereo not given), the Activity in [1] worked out at 100%; in series [2] it was 100%; in series [3], 100%; in series [4] it was 87.6%; in [5], 100%; in series [6], 100%. Further, the Activity in [7] worked out at 0.1%; in series [8], 87.6%; in series [9], 80%; in series [10] it was 0%; in series [11], 0%; in series [12], 0%. Besides, the Activity worked out at 60% in series [13]; 95% in [14]; 98% in series [15]; 98% in series [16]; 98% in [17]; 100% in series [18]. In addition, the Activity in series [20] amounted to 10%; in series [21], 0%; in series [22] it was 7%; in series [23] it was 0%. In addition, in series [19], the Stability entry was “Unstable”.
Consider `COC(=O)C1(c2ccccc2)C(=O)N(C(C)(C)c2cc(Cl)cc(Cl)c2)C=C1CO` (stereo not given), for which the Activity worked out at 87.6% in series [1]; 100% in series [2]; 100% in series [3]; 87.6% in series [4]; 100% in series [5]; 100% in series [6]. Also, the Activity in series [7] amounted to 87.6%; in series [8], 87.6%; in [9] it was 65%; in series [10] it was 0%; in [11], 0%; in [12], 0%. Further, the Activity in series [13] amounted to 30%; in series [14], 75%; in series [15], 99%; in [16] it was 97%; in series [17], 99%; in [18], 99%. Further, the values for the Activity in series [20] and in series [23] were 60% and 0%, respectively.
As to `COC(=O)C1(c2ccccc2F)C(=O)N(C(C)(C)c2cc(Cl)cc(Cl)c2)C=C1C` (stereo not given), the Activity came to 0.1% in series [1]; 100% in series [2]; 100% in series [3]; 100% in series [4]; 100% in [5]; 100% in [6]. Moreover, the Activity came to 0.1% in [7]; 87.6% in [8]; 30% in series [9]; 0% in series [10]; 0% in [11]; 0% in [12]. The Activity in series [13] is 80%; in series [14] it was 90%; in series [15] it was 100%; in series [16], 99%; in series [17] it was 99%; in series [18], 100%. For the same compound, the Activity in series [24] is 0%; in series [25] it was 20%; in series [20] it was 5%; in series [23] it was 0%.
As to `COC(=O)C1(c2ccccc2)C(=O)N(C(C)(C)c2cc(Cl)nc(Cl)c2)C=C1C` (stereo not given), the Activity in series [1] is given as 100%; in [2], 100%; in series [3], 100%; in series [4], 50.1%; in series [5] it was 100%; in series [6], 100%. Also, the Activity in series [7] was 87.6%; in [8], 87.6%; in [9], 80%; in series [10], 0%; in series [11], 0%; in series [12], 0%. In addition, the Activity in [13] is 50%; in [14], 90%; in series [15], 98%; in series [16] it was 75%; in [17] it was 99%; in series [18], 99%. The Activity was 70% in series [20] and 30% in series [23].
